# Assay results: US7598279B2, “Neurotherapeutic azole compounds” (SK Holdings Co., Ltd., priority 2005, dated 2009)
# Key:
# [1] = tested on: mice; assay: Light-Dark Box (LDB) test; format: in vivo
# Experimental: Light-Dark Box (LDB) test, one of the unconditioned conflict tests, was used to investigate anxiolytic activity for several drugs such as Diazepam, Buspirone, etc (Allikmets et al, 1996; Belzung and Griebel, 2001; Cutler and Aitken, 1991; Leyre et al, 2004). In the present study, anxiolytic effect of azole compounds containing carbamoyl group represented by general structural formula (IX) was investigated on the LDB test in mice.
# The animals were treated with compound 30 min prior to testing. The light-dark box consisted of a plexiglas apparatus measuring 45 cm×27 cm×27 cm (L×W×H), and was partitioned into two compartments, one fully opaque (dark compartment made of black plexiglas: 18 cm of total length of apparatus), while the second was lit from the compartment ceiling by a 100 W bulb. A small opening (7×7 cm) in the partition wall allowed free passage between the light and dark compartments.
# Animals were placed at the lit compartment first, and the latency for escape into dark was checked and tested in the LDB for 5 min after the first entering into dark box. The animal, which the latency was over 2 min, was excluded from the test. Total time spent in the light compartment was counted. Movement of animal was checked through the TV-CCD camera by an experienced observer blind to the conditions of the experiment. A mouse whose four paws were in the new box was considered as having changed box.
# [2] = tested on: mice; assay: Maximal ElectroShock (MES)-induced tonic seizure test; format: in vivo; settings: for ED50 / responders at 30 mg/kg: Mus musculus; for ED50: read-out: Mice MES ED50 (mpk/peak time); for responders at 30 mg/kg: read-out: Mice MES Protection % (mpk/peak time)
# Experimental: The “Maximal ElectroShock (MES)” test is a well-established pharmacological screening method for anticonvulsants against tonic-clonic seizures. The procedure employed in the MES test for anticonvulsants is as follows. The compounds to be tested were dissolved in 30% PEG400 and administered ip and po into animals. After the designated number of hours, maximal electroshock (50 mA, 60 Hz, 0.2 sec) was applied into animals via corneal electrodes using IITC Life Science model 11A Shocker. […] Median efficacy dose (ED50) levels were determined using three different dose levels with at least 8 mice in each group.
# [3] = tested on: mice; assay: Pentylenetetrazol (PTZ)-induced clonic seizure test; format: in vivo; settings: for ED50 / responders at 30 mg/kg: Mus musculus; for ED50: sc, read-out: Mice PTZ ED50 (mpk/peak time); for responders at 30 mg/kg: read-out: Mice PTZ Protection % (mpk/peak time)
# Experimental: The “Pentylenetetrazol (PTZ)” test for anticonvulsant and antianxiety activity was also carried out.
# The procedure employed in the PTZ test is as follows. The compounds to be tested were dissolved in 30% PEG400 and administered ip and po into animals. After the designated number of hours, each animal was injected subcutaneously with 100 mg/kg of PTZ (CD97 dose) and observed for up to 30 minutes for the presence or absence of clonic spasms over 5 seconds. Median efficacy dose (ED50) levels were determined using three different dose levels with 8 mice in each group.
# [4] = tested on: mice; assay: Forced swimming test (FST); format: in vivo; settings: 30 min after dosing
# Experimental: The “Forced swimming test (FST)” for antidepressant activity was also carried out. The procedure employed in the FST for antidepressant is as follows. The compounds to be tested were dissolved in 30% PEG400 and administered ip and po into animals. 30 min later, the immobility time during post 4 minutes of 6 minutes experiment time was measured.
# [5] = biological target: TBPS site of GABA-A receptor; assay: GABA-A receptor (TBPS site) binding assay, [35S]TBPS; settings: rat brain membranes, 2 nM [35S]TBPS
# Experimental: Compounds of the inventions were tested for specific binding to TBPS (t-butyl bicyclophosphorothionate) site, an allosteric modulator site of GABA-A receptor as modified from G. Maksay and M. Simonyi, Eur. J. Pharmacol. 1985, 117(2), 275. and Gee, K. W. et al., J. Pharm. Exp. Ther. 1988, 246, 803.
# This binding assay was performed using [35S] TBPS as radioligand in washed crude membrane homogenate from rat brains. Membrane preparations were carried out according to procedure described below. Sprague-Dawley (SD) rat weighting 230 g were killed by decapitation and their whole brains were rapidly removed and its cerebellums were excluded. The dissected brains were homogenized for 30 sec in 10 volumes (W/V) of ice-cold 0.32 M Sucrose and 50 mM Tris-citrate buffer pH 7.4 using glass homogenate. The homogenate was centrifuged at 2,000×g for 5 min at 4° C. And the supernatant re-centrifuged at 50,000×g for 20 min at 4° C. The supernatant was discarded and the resulting pellets were resuspended in 10 volumes (W/V) of ice-cold 50 mM Tris-citrate buffer pH 7.4. And then the suspended pellet was centrifuged at 50,000×g for 20 min at 4° C. The resulting pellets were suspended again in 32 volumes (W/V) of ice-cold 50 mM Tris-citrate buffer pH 7.4 with 0.05% Triton X-100 and then incubated in 37° C. for 60 min using a water bath. The incubated suspension was centrifuged at 50,000×g for 20 min at 4° C. Resuspending and centrifugation step of the remained pellets were repeated twice at the same manner and final pellets were resuspended in 10 volumes (W/V) of ice-cold 50 mM Tris-citrate buffer pH 7.4 to enable distribution of 2 ml aliquot in microcentrifuge tube, which were used immediately or kept at −80° C. for no more than 1 month before use.
# For TBPS site binding assay, 50 μl of the tested compound were added to 100 μg membrane protein suspended in 0.15 ml of 50 mM Tris-citrate buffer with 200 mM NaCl pH 7.4 in presence of 2 nM of [35S] TBPS. The incubation of mixtures were carried out for 1.5 hours at 25° C. and then rapidly filtered over Whatman GF/C glass fiber filters, followed by twice 4.5 ml rinses with ice-cold incubation buffer. The filters were placed in counting vials and 4 ml scintillation solution. The vials were counted in a Beckman scintillation counter. Non-specific binding was determined in parallel incubations with 100 μM picrotoxin.
# IC50 values for TBPS site binding assay was calculated using Graphpad PRISM v.3.00.
# [6] = treated 30 min prior to testing, dose not given
# [7] = treated 30 min prior to testing
structure (smiles),measurement,setting,value
"NC(=O)O[C@H](Cn1ncnn1)c1ccc(Cl)cc1Cl [Example 113, Carbamic acid (S)-1-(2,4-dichloro-phenyl)-2-tetrazol-2-yl-ethyl ester]",Mice LDB % Duration in the light box,[1]; [6],−172% ^
same,ED50,[2]; 1 h,13 mg/kg
same,ED50,[3]; 1 h,20.7 mg/kg
same,Mice FST Reduction of immobility %,[4],N.S
"NC(=O)O[C@@H](Cn1ncnn1)c1ccc(Cl)cc1Cl [Example 103, Carbamic acid (R)-1-(2,4-dichloro-phenyl)-2-tetrazol-2-yl-ethyl ester]",Mice LDB % Duration in the light box,[1]; [6],277.8% ^
same,ED50,[2]; 1 h,19.2 mg/kg
same,ED50,[3]; 1 h,5.14 mg/kg
same,Mice FST Reduction of immobility %,[4],N.S
same,IC50,[5],13.4 µM
"NC(=O)OC(Cn1ncnn1)c1c(Cl)cccc1Cl (centres unmarked) [Example 98, Carbamic acid 1-(2,6-dichloro-phenyl)-2-tetrazol-2-yl-ethyl ester]",ED50,[2]; 0.5 h,6.03 mg/kg
same,ED50,[3]; 0.5 h,11.6 mg/kg
same,Mice FST Reduction of immobility %,[4]; dose not given,31.5%
same,TBPS Inhibition % (At 100 μM),[5],29.9%
"NC(=O)O[C@@H](Cn1ccnn1)c1ccc(Cl)cc1Cl [Example 130, Carbamic acid (R)-1-(2,4-dichloro-phenyl)-2-[1,2,3]triazol-1-yl-ethyl ester]",Mice LDB % Duration in the light box,[1]; [7],N.S
same,ED50,[2]; 0.5 h,24 mg/kg
same,ED50,[3]; 0.5 h,8 mg/kg
same,Mice FST Reduction of immobility %,[4]; dose not given,8.8%
same,TBPS Inhibition % (At 100 μM),[5],42.8%
"CC(C(OC(N)=O)c1ccc(Cl)c(Cl)c1)n1ncnn1 (centres unmarked) [Example 80, Carbamic acid 1-(3,4-dichloro-phenyl)-2-tetrazol-2-yl-propyl ester]",responders at 30 mg/kg,[2]; 4 h,33.3%
same,Mice FST Reduction of immobility %,[4]; dose not given,50.6%
same,TBPS Inhibition % (At 100 μM),[5],64.8%
"NC(=O)O[C@@H](Cn1nccn1)c1ccc(Cl)cc1Cl [Example 115, Carbamic acid (R)-1-(2,4-dichloro-phenyl)-2-[1,2,3]triazol-2-yl-ethyl ester]",Mice LDB % Duration in the light box,"[1]; 10 mpk, ip",245%^
same,ED50,[2]; 0.25 h,12.7 mg/kg
same,ED50,[3]; 1 h,8.43 mg/kg
same,Mice FST Reduction of immobility %,[4],N.S
same,IC50,[5],4.3 µM
"NC(=O)NC(=O)OC(Cn1ncnn1)c1ccccc1Cl (centres unmarked) [Example 129, O-1-(2-Chloro-phenyl)-2-tetrazol-2-yl ethyl allophanate]",Mice MES ED50 (mpk/peak time),"[2]; mice, peak time 0.5 hr",13.7/0.5 hr mpk
same,Mice PTZ Protection % (mpk/peak time),"[3]; 3 mice, 30 mpk, 1 hr",100% (30/1 hr)
same,Mice FST Reduction of immobility %,[4],N.S
same,TBPS Inhibition % (At 100 μM),[5],5.6%
"NC(=O)OC(Cn1ncnn1)c1ccccc1Cl (centres unmarked) [Example 2, Carbamic acid 1-(2-chloro-phenyl)-2-tetrazol-2-yl-ethyl ester]",Mice LDB % Duration in the light box,[1]; [6],180%^
same,ED50,[2]; 0.5 h,8.6 mg/kg
same,ED50,[3]; 0.5 h,5.9 mg/kg
same,Mice FST Reduction of immobility %,[4],N.S
"NC(=O)O[C@@H](Cn1nccn1)c1ccccc1Cl [Example 33, Carbamic acid (R)-1-(2-chloro-phenyl)-2-[1,2,3]triazol-2-yl-ethyl ester]",Mice LDB % Duration in the light box,[1]; [7],N.S
same,ED50,[2]; 0.5 h,9.72 mg/kg
same,ED50,[3]; 0.5 h,8.18 mg/kg
same,Mice FST Reduction of immobility %,[4]; dose not given,26.2%
"NC(=O)OC(Cn1nccn1)c1c(Cl)cccc1Cl (centres unmarked) [Example 99, Carbamic acid 1-(2,6-dichloro-phenyl)-2-[1,2,3]triazol-2-yl-ethyl ester]",ED50,[2]; 0.5 h,11.6 mg/kg
same,responders at 30 mg/kg,[3]; 2 h,100%
same,Mice FST Reduction of immobility %,[4],N.S
same,TBPS Inhibition % (At 100 μM),[5],23.6%
"NC(=O)OC(Cn1ncnn1)c1cc(Cl)ccc1Cl (centres unmarked) [Example 89, Carbamic acid 1-(2,5-dichloro-phenyl)-2-tetrazol-2-yl-ethyl ester]",Mice LDB % Duration in the light box,[1]; [6],167.4% ^
same,ED50,[2]; 1 h,6.15 mg/kg
same,ED50,[3]; 1 h,14.5 mg/kg
same,Mice FST Reduction of immobility %,[4],N.S
same,TBPS Inhibition % (At 100 μM),[5],27.6%
"NC(=O)O[C@H](Cn1nccn1)c1ccc(Cl)cc1Cl [Example 114, Carbamic acid (S)-1-(2,4-dichloro-phenyl)-2-[1,2,3]triazol-2-yl-ethyl ester]",Mice LDB % Duration in the light box,[1]; [6],172.5% ^
same,ED50,[2]; 1 h,33.9 mg/kg
same,ED50,[3]; 1 h,16.9 mg/kg
same,Mice FST Reduction of immobility %,[4],N.S
same,IC50,[5],107 µM
"NC(=O)O[C@@H](Cn1ncnn1)c1ccc(Cl)c(Cl)c1 [Example 88, Carbamic acid (R)-1-(3,4-dichloro-phenyl)-2-tetrazol-2-yl-ethyl ester]",ED50,[2]; 0.5 h,19.1 mg/kg
same,Mice FST Reduction of immobility %,[4]; dose not given,88.4%
same,TBPS Inhibition % (At 100 μM),[5],52.8%
"NC(=O)OC(COc1ccc(Cl)c(Cl)c1)Cn1ncnn1 (centres unmarked) [Example 148, Carbamic acid 2-(3,4-dichloro-phenoxy)-1-tetrazol-2-ylmethyl-ethyl ester]",responders at 30 mg/kg,[2]; 0.5 h,100%
same,responders at 30 mg/kg,[3]; 4 h,66.7%
same,Mice FST Reduction of immobility %,[4],N.S
same,TBPS Inhibition % (At 100 μM),[5],76.1%
"NC(=O)O[C@@H](Cn1nccn1)c1ccc(Cl)cc1 [Example 86, Carbamic acid (R)-1-(4-chloro-phenyl)-2-[1,2,3]triazol-2-yl-ethyl ester]",ED50,[2]; 0.5 h,21.4 mg/kg
same,Mice FST Reduction of immobility %,[4],N.S
same,TBPS Inhibition % (At 100 μM),[5],18.9%
"NC(=O)O[C@@H](Cn1ncnn1)c1c(Cl)cccc1Cl [Example 126, Carbamic acid (R)-1-(2,6-dichloro-phenyl)-2-tetrazol-2-yl-ethyl ester]",Mice LDB % Duration in the light box,[1]; [6],241.5% ^
same,ED50,[2]; 0.5 h,2.7 mg/kg
same,ED50,[3]; 0.5 h,5.06 mg/kg
same,Mice FST Reduction of immobility %,[4]; dose not given,72.0%
same,TBPS Inhibition % (At 100 μM),[5],0.3%
"O=C(OC(Cn1ncnn1)c1ccccc1Cl)N1CCC(Cc2ccccc2)CC1 (centres unmarked) [Example 138, 4-Benzyl-piperidine-1-carboxylic acid 1-(2-chloro-phenyl)-2-tetrazol-2-yl-ethyl ester]",responders at 30 mg/kg,[2]; 2 h,100%
same,responders at 30 mg/kg,[3]; 4 h,66.7%
same,Mice FST Reduction of immobility %,[4]; dose not given,35.9%
same,TBPS Inhibition % (At 100 μM),[5],49.6%
